{
  "source": "patent US9289398B2",
  "about": "“Methods for the production of functional protein from DNA having a nonsense mutation and the treatment of disorders associated therewith” (PTC Therapeutics, Inc., priority 2006, dated 2016)",
  "assay": "Safety and compliance, additional DMD Phase 2 study (26 boys)",
  "assay_type": "in vivo, human",
  "experimental": "An additional Phase 2 study was carried out as follows to evaluate 3-[5-(2-fluoro-phenyl)-[1,2,4]oxadiazol-3-yl]-benzoic acid safety, compliance, PK, effects on full-length muscle dystrophin protein expression, and clinical activity in patients with nonsense-mutation-mediated DMD.\n3-[5-(2-fluoro-phenyl)-[1,2,4]oxadiazol-3-yl]-benzoic acid was administered orally for 28 days at dose levels of 4, 4, 8 mg/kg (low dose); 10, 10, 20 mg/kg (mid dose); and 20, 20, 40 mg/kg (high dose) after breakfast, lunch, and dinner, respectively. 26 boys (ages: 5-13 years; stop codons: 15 UGA, 6 UAG, 5 UAA; baseline serum CK: 8,645-49,500 IU; steroid use: 19/26) completed 3-[5-(2-fluoro-phenyl)-[1,2,4]oxadiazol-3-yl]-benzoic acid at the low (n=6) or mid (n=20) dose levels. […] Compliance was >98% for both dose levels. Day 1 and Day 28 PK indicate stable plasma exposures over time; however, exposures were lower than in 3-[5-(2-fluoro-phenyl)-[1,2,4]oxadiazol-3-yl]-benzoic acid-treated healthy adult volunteers and cystic fibrosis patients. […] Relative to baseline, post-treatment increases in in vivo dystrophin expression occurred in 4/6 (67%) (90% CI 27-94%) and 10/20 (50%) (90% C1-30-70%) boys at low and mid doses, respectively.",
  "data": [
    {"smiles": "O=C(O)c1cccc(-c2noc(-c3ccccc3F)n2)c1", "note": "[3-[5-(2-fluoro-phenyl)-[1,2,4]oxadiazol-3-yl]-benzoic acid]", "values": [
      {"measurement": "Severity of adverse events and laboratory abnormalities", "setting": "26 boys, low (n=6) or mid (n=20) dose, 28 days oral", "value": "mild-moderate"},
      {"measurement": "Dose relation of adverse events and laboratory abnormalities", "setting": "low 4, 4, 8 mg/kg versus mid 10, 10, 20 mg/kg", "value": "no dose-related changes in frequency or severity"}
    ]}
  ]
}
